In patent US4678780A, “Anti-spasmodic agents having a ring in the main chain” (United Pharmaceuticals, Inc., priority 1986, dated 1987):
Where a name gives a salt, the structure may show the parent alone.

Key:
[1] = test system: muscarinic receptors; format: binding, rabbit (New Zealand White); settings: at a concentration of 1.0 × 10^-5 M; 0.1 nM [3H]QNB; 37° C., 60 min; pH 7.4
[2] = test system: gastrointestinal tract, biliary tract, ureter and uterus; settings: in vivo; cited from earlier work
[3] = in vivo; cited from earlier work

| Structure (SMILES) | % inhibition of ^3 H[QNB] binding [1] [%] | decrease spasm [2] | atropinic side effects [3] |
| --- | --- | --- | --- |
| CCN(CC)CCSC(=O)c1ccc(C(C)(C)C)cc1 [4-t-butyl-benzoyl-thio-S-(2-diethylaminoethyl)-ester.HCl] | 21 | – | – |
| CCN(CC)CCSC(=O)C(c1ccccc1)c1ccccc1 [Thiphenamil hydrochloride] | – | decrease spasm of the gastrointestinal tract, biliary tract, ureter and uterus | without producing characteristic atropinic side effects on salivary and sweat glands, GI glands, the eye or the cardiovascular system |
